# Assay results: patent publication US20250230193A1, “CYCLIC COMPOUND HAVING SELECTIVE KRAS INHIBITORY EFFECT ON HRAS AND NRAS” (CHUGAI SEIYAKU KABUSHIKI KAISHA, priority 2022, published 2025)
# Where a SMILES comes first, the peptide text is derived from it. Bridges are numbered along the chain shown (N, C = ends). [ ]: non-standard residue; d: D form. The star is where a group is joined. hPhe(3-Cl-4-CF3) = N[C@@H](CCc1ccc(C(F)(F)F)c(Cl)c1)C(=O)O; NPrPhe(4-CF3) = CCCN[C@@H](Cc1ccc(C(F)(F)F)cc1)C(=O)O; NMePhe(4-Me) = CN[C@@H](Cc1ccc(C)cc1)C(=O)O; NMeGly(cPent) = CN[C@H](C(=O)O)C1CCCC1; NMeD = CN[C@@H](CC(=O)O)C(=O)O; NMeL = CN[C@@H](CC(C)C)C(=O)O; Morpholide = C1CN(*)CCO1; NMeAib = CNC(C)(C)C(=O)O; Nle = CCCC[C@H](N)C(=O)O; Piperidide = C1CCN(*)CC1; Ac5c = NC1(C(=O)O)CCCC1; NPrGly = CCCNCC(=O)O; Sar = CNCC(=O)O
# Assays:
# [1] = target: GDP-bound NRAS wild-type protein (Homo sapiens, UniProt P01111); test: Binding to NRAS by surface plasmon resonance (SPR), Single Cycle Kinetics
# GDP-bound NRAS wild-type protein, sequence (P01111 whole entry): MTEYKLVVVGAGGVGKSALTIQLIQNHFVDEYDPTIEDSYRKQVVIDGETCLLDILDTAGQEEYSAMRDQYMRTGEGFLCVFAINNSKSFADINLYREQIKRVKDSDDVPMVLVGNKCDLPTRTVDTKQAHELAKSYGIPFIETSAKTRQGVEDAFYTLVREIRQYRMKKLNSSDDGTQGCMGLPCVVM
# [2] = target: GDP-bound HRAS wild-type protein (Homo sapiens, UniProt P01112); test: Binding to HRAS by surface plasmon resonance (SPR), Single Cycle Kinetics
# GDP-bound HRAS wild-type protein, sequence (P01112 whole entry): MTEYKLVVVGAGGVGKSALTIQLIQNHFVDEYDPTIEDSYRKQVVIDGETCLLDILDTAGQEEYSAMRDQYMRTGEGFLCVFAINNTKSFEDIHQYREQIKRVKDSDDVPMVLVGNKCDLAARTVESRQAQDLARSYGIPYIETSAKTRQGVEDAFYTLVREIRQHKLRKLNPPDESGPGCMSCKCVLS
# [3] = SPR, GDP-bound NRAS wild-type vs GDP-bound KRAS wild-type
# [4] = SPR, GDP-bound HRAS wild-type vs GDP-bound KRAS wild-type
# [5] = KD ratio, GDP-bound NRAS wild-type vs GDP-bound KRAS wild-type, SPR
# [6] = KD ratio, GDP-bound HRAS wild-type vs GDP-bound KRAS wild-type, SPR
smiles,measurement,setting,value
"CCC[C@H]1C(=O)N[C@@H]([C@@H](C)CC)C(=O)N(C2CC2)CC(=O)N(C)[C@H]2C/C=C\CCN(C2=O)[C@@H](Cc2ccc(C(F)(F)F)cc2)C(=O)N(C)CC(=O)N[C@@H](CCc2ccc(C(F)(F)F)c(OC)c2)C(=O)N2C[C@H](OCC)C[C@H]2C(=O)N(C)C2(CCC2)C(=O)N(C)[C@@H](C2CCCC2)C(=O)N(C)[C@H](C(=O)N(C)C)CC(=O)N1C [PP2316, (2S,8S,12R,14S,20S,23S,27S,30S,36S,38Z)-20-cyclopentyl-32-cyclopropyl-12-ethoxy-8-[2-[3-methoxy-4-(trifluoromethyl)phenyl]ethyl]-N,N,4,16,19,22,26,35-octamethyl-30-[(1S)-1-methylpropyl]-3,6,9,15,18,21,25,28,31,34,42-undecaoxo-27-propyl-2-[[4-(trifluoromethyl)phenyl]methyl]spiro[1,4,7,10,16,19,22,26,29,32,35-undecazatricyclo[34.5.1.0^10,14]dotetracont-38-ene-17,1′-cyclobutane]-23-carboxamide]",NRAS/KRAS (ratio of KD value with respect to NRAS to KD value with respect to KRAS),[1]; [3],A (a compound having 10 or more and less than 20 is denoted as A)
same,HRAS/KRAS (ratio of KD value with respect to HRAS to KD value with respect to KRAS),[2]; [4],A (a compound having 10 or more and less than 20 is denoted as A)
CCCN(C)C(=O)[C@@H]1CC(=O)N(C)[C@@H](CC(F)(F)F)C(=O)N[C@@H]([C@@H](C)CC)C(=O)N(C)CC(=O)N(C)[C@H]2C/C=C\CCN(C2=O)[C@@H](Cc2ccc(C(F)(F)F)cc2)C(=O)N(C)CC(=O)N[C@@H](CCc2cc(F)c(C(F)(F)F)c(F)c2)C(=O)N2C[C@H](OCC)C[C@H]2C(=O)NC2(CC(F)(F)C2)C(=O)N(C)[C@@H](C2CCCC2)C(=O)N1C [PP1734],NRAS/KRAS (ratio of KD value for NRAS to KD value for KRAS),[1]; [5],A (a compound having 10 or more and less than 20 is denoted as A)
same,HRAS/KRAS (ratio of KD value for HRAS to KD value for KRAS),[2]; [6],A (a compound having 10 or more and less than 20 is denoted as A)
CCC[C@H]1C(=O)N[C@@H]([C@@H](C)CC)C(=O)N(C)CC(=O)N(C)[C@H]2C/C=C\CCN(C2=O)[C@@H](Cc2ccc(C(F)(F)F)cc2)C(=O)N(C)CC(=O)N[C@@H](CCc2ccc3c(C)cn(C)c3c2)C(=O)N2C[C@H](OCC)C[C@H]2C(=O)NC2(CC(C)(C)C2)C(=O)N(C)[C@@H](C2CCCC2)C(=O)N(C)[C@H](C(=O)N(C)C)CC(=O)N1C [PP2897],NRAS/KRAS (ratio of KD value with respect to GDP-bound NRAS wild-type protein to KD value with respect to KRAS),"[1]; KD ratio NRAS/KRAS, class symbols",A (a compound having 10 or more and less than 20 is denoted as A)
same,HRAS/KRAS (ratio of KD value with respect to GDP-bound HRAS wild-type protein to KD value with respect to KRAS),"[2]; KD ratio HRAS/KRAS, class symbols",B (a compound having 3 or more and less than 10 is denoted as B)
CCCC[C@@H]1NC(=O)[C@H](CCc2ccc(C(F)(F)F)c(Cl)c2)NC(=O)CN(C)C(=O)[C@H](Cc2ccc(C)cc2)N(C)C(=O)CN(C)C(=O)CN(C)C(=O)[C@H]([C@@H](C)CC)NC(=O)[C@H](CC(C)C)N(C)C(=O)C[C@@H](C(=O)N2CCCCC2)N(C)C(=O)[C@H](CC(C)C)NC(=O)C(C)(C)N(C)C1=O [PP0049] ([NMeL]I[Sar][Sar][NMePhe(4-Me)][Sar][hPhe(3-Cl-4-CF3)][Nle][NMeAib]L[NMeD]-Piperidide; lactam N-11),NRAS/KRAS (ratio of KD for GDP-bound NRAS wild-type to KD for KRAS),"[1]; KD ratio NRAS/KRAS, SPR",C (A compound having a KD ratio of 0.1 or more and less than 3 is denoted as C)
same,HRAS/KRAS (ratio of KD for GDP-bound HRAS wild-type to KD for KRAS),"[2]; KD ratio HRAS/KRAS, SPR",C (A compound having a KD ratio of 0.1 or more and less than 3 is denoted as C)
CCO[C@@H]1C[C@H]2C(=O)NC3(CCC3)C(=O)N(C)[C@@H](C3CCCC3)C(=O)N(C)[C@H](C(=O)N3CCOCC3)CC(=O)N(C)[C@@H](Cc3ccc(Cl)c(Cl)c3)C(=O)N[C@@H]([C@@H](C)CC)C(=O)N(C)CC(=O)N(C)[C@H]3CCCCCN(C3=O)[C@@H](Cc3ccc(F)cc3)C(=O)N(C)CC(=O)N[C@@H](CCc3cc(F)c(C(F)(F)F)c(F)c3)C(=O)N2C1 [PP1188],NRAS/KRAS (ratio of KD value with respect to NRAS to KD value with respect to KRAS),[1]; [5],B (a compound having 3 or more and less than 10 is denoted as B)
same,HRAS/KRAS (ratio of KD value with respect to HRAS to KD value with respect to KRAS),[2]; [6],B (a compound having 3 or more and less than 10 is denoted as B)
CCO[C@@H]1C[C@H]2C(=O)NC3(CC(C)(C)C3)C(=O)N(C)[C@@H](C(CC)CC)C(=O)N(C)[C@H](C(=O)N(C)C)CC(=O)N(C)[C@@H](C)C(=O)N[C@@H]([C@@H](C)CC)C(=O)N(C)CC(=O)N(C)[C@H]3C/C=C\CCN(C3=O)[C@@H](Cc3ccc(C)cc3)C(=O)N(C)CC(=O)N[C@@H](CCc3cc(F)c(C(F)(F)F)c(F)c3)C(=O)N2C1 [PP2143],NRAS/KRAS (ratio of KD value with respect to NRAS to KD value with respect to KRAS),[1]; [3],A (a compound having 10 or more and less than 20 is denoted as A)
same,HRAS/KRAS (ratio of KD value with respect to HRAS to KD value with respect to KRAS),[2]; [4],A (a compound having 10 or more and less than 20 is denoted as A)
CCCN1CC(=O)NC2(CCCC2)C(=O)N(C)[C@@H](C2CCCC2)C(=O)N(C)[C@H](C(=O)N2CCOCC2)CC(=O)N(C)[C@@H](CC(C)C)C(=O)N[C@@H]([C@@H](C)CC)C(=O)N(C)CC(=O)N(C)CC(=O)N(CCC)[C@@H](Cc2ccc(C(F)(F)F)cc2)C(=O)N(C)CC(=O)N[C@@H](CCc2ccc(C(F)(F)F)c(Cl)c2)C1=O [PP0267] ([NMeL]I[Sar][Sar][NPrPhe(4-CF3)][Sar][hPhe(3-Cl-4-CF3)][NPrGly][Ac5c][NMeGly(cPent)][NMeD]-Morpholide; lactam N-11),NRAS/KRAS (ratio of KD for GDP-bound NRAS wild-type to KD for KRAS),"[1]; KD ratio NRAS/KRAS, SPR",B (a compound having 3 or more and less than 10 is denoted as B)
same,HRAS/KRAS (ratio of KD for GDP-bound HRAS wild-type to KD for KRAS),"[2]; KD ratio HRAS/KRAS, SPR",B (a compound having 3 or more and less than 10 is denoted as B)
